What all share (test): Bliss excess, mean over the matrix (fraction); higher = more synergy
Assay [1] deals with KURAMOCHI (Ovarian Carcinoma). In a few lines:
(§1)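 After 24 hours at 37°C and 5% CO2 in 1536-well plates, cells in DMEM/F12 or RPMI plus 10% FBS received two-drug dose matrices for 72 hours. Viability came from CellTiter-Glo 2.0 luminescence and was scaled as inhibition, anchored at 0 by vehicle wells and at 1 by blank wells. Combination Emax is taken as the second-highest inhibition in the matrix, and Bliss excess as the observed combination effect less EA + EB − EA·EB, with EA and EB the single-agent effects.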

Assay [2] has as its system Calu-3 (Lung Adenocarcinoma). In a few lines: as §1
The test system of assay [3] is Ramos-2G6-4C10 (Burkitt's Lymphoma). The essentials: as §1
The subject of assay [4] is UM-UC-3 (Bladder Carcinoma). In a few lines:
as §1

Assay [5] has as its system NCI-H2085 (Non-Small Cell Lung Carcinoma). In a few lines: as §1
Assay [6] has as its system HT-1376 (Bladder Carcinoma). The essentials: as §1
Assay [7] concerns LB831-BLC (Bladder Carcinoma). The essentials:
as §1

Assay [8] deals with HO-1-N-1 (Oral Cavity Carcinoma). In a few lines:
as §1

Here are results for ten compounds from the supplement of paper PMC11061612.

For the compound `CS(=O)(=O)CCNCc1ccc(-c2ccc3ncnc(Nc4ccc(OCc5cccc(F)c5)c(Cl)c4)c3c2)o1` [Lapatinib] + Cn1cnc2c(F)c(Nc3ccc(Br)cc3Cl)c(C(=O)NOCCO)cc21 [Selumetinib] (first compound max 10 µM, 7x7, partner max 10 µM), the Bliss excess in assay [1] is -0.0116; in assay [2] it was -0.009; in assay [3], 0.0139; in assay [4], 0.0547; in assay [5], -0.0366; in assay [6], 0.0188. The Bliss excess in assay [7] is -0.0344; in assay [8], 0.145.

As to `O=C(c1cc(Cc2n[nH]c(=O)c3ccccc23)ccc1F)N1CCN(C(=O)C2CC2)CC1` [Olaparib] + CC1(C)CCC(CN2CCN(c3ccc(C(=O)NS(=O)(=O)c4ccc(NCC5CCOCC5)c([N+](=O)[O-])c4)c(Oc4cnc5[nH]ccc5c4)c3)CC2)=C(c2ccc(Cl)cc2)C1 [Venetoclax] (first compound max 10 µM, 7x7, partner max 1 µM), the Bliss excess in assay [1] was -0.0482; in assay [2], -0.0406; in assay [3], -0.0167; in assay [4], -0.0528; in assay [5], -0.0608; in assay [6] it was -0.0522. Besides, the Bliss excess in assay [7] is -0.0271; in assay [8], 0.048.

Regarding `O=C(c1cc(Cc2n[nH]c(=O)c3ccccc23)ccc1F)N1CCN(C(=O)C2CC2)CC1` [Olaparib] + CN(CC[C@H](CSC1=CC=CC=C1)NC2=C(C=C(C=C2)S(=O)(=O)NC(=O)C3=CC=C(C=C3)N4CCC(CC4)[C@H](C5=CC=CC=C5C6=CC=C(C=C6)Cl)O)S(=O)(=O)C(F)(F)F)CCO [AZD4320] (first compound max 10 µM, 7x7, partner max 1 µM), the Bliss excess in assay [1] is -0.0414; in assay [2], -0.027; in assay [3], -0.0184; in assay [4] it was 0.0086; in assay [5], -0.0134; in assay [6] it was -0.0572. In addition, the Bliss excess was -0.0076 in assay [7] and 0.0106 in assay [8].

Turning to `O=C(c1cc(Cc2n[nH]c(=O)c3ccccc23)ccc1F)N1CCN(C(=O)C2CC2)CC1` [Olaparib] + COc1nnc2ccc(N3CCC(c4ccc(OCCN5CCN(C)C(=O)[C@H]5C)cc4)CC3)nn12 [AZD5153] (first compound max 10 µM, 7x7, partner max 1 µM), the Bliss excess is -0.0231 in assay [1]; -0.0339 in assay [2]; -0.0473 in assay [3]; -0.0014 in assay [4]; -0.0423 in assay [5]; -0.0425 in assay [6]. The values for the Bliss excess in assay [7] and in assay [8] were -0.0889 and -0.02, respectively.

Consider `O=C(c1cc(Cc2n[nH]c(=O)c3ccccc23)ccc1F)N1CCN(C(=O)C2CC2)CC1` [Olaparib] + Cc1c2c(nn1C)CSCc1cc(n(C)n1)CSc1cc(c3ccccc3c1)OCCCc1c(C(=O)O)n(C)c3c-2c(Cl)ccc13 [AZD5991] (first compound max 10 µM, 7x7, partner max 1 µM), for which the Bliss excess in assay [1] is -0.0546; in assay [2] it was -0.0453; in assay [3] it was 0.0249; in assay [4], -0.0182; in assay [5], -0.062; in assay [6], -0.0392. For the same compound, the Bliss excess in assay [7] was -0.0371; in assay [8], 0.0456.

Consider `N#Cc1cnc(Nc2cc(NC[C@H]3CNCCO3)c(C(F)(F)F)cn2)cn1` [SRA737] + CCc1c2c(nc3ccc(O)cc13)-c1cc3c(c(=O)n1C2)COC(=O)[C@]3(O)CC [SN-38] (first compound max 10 µM, 7x7, partner max 0.3 µM), for which the Bliss excess in assay [1] is -0.0093; in assay [2], -0.0477; in assay [3] it was 0.135; in assay [4] it was -0.0017; in assay [5] it was -0.0053; in assay [6], 0.0047. In addition, the Bliss excess in assay [7] is 0.0497; in assay [8] it was -0.0022.

As to `N#Cc1cnc(Nc2cc(NC[C@H]3CNCCO3)c(C(F)(F)F)cn2)cn1` [SRA737] + Nc1ccn([C@@H]2O[C@H](CO)[C@@H](O)C2(F)F)c(=O)n1 [Gemcitabine] (first compound max 10 µM, 7x7, partner max 0.3 µM), the Bliss excess in assay [1] was -0.0079; in assay [2], 0.0286; in assay [3], 0.149; in assay [4], 0.0629; in assay [5], -0.0192; in assay [6], -0.0059. The results for the Bliss excess in assay [7] and in assay [8] were 0.0477 and 0.015, respectively.

Consider `N#Cc1cnc(Nc2cc(NC[C@H]3CNCCO3)c(C(F)(F)F)cn2)cn1` [SRA737] + O=c1[nH]cc(F)c(=O)[nH]1 [5-Fluorouracil] (first compound max 10 µM, 7x7, partner max 20 µM), for which the Bliss excess in assay [1] was -0.0351; in assay [2] it was -0.0137; in assay [3] it was -0.0068; in assay [4] it was -0.0007; in assay [5], -0.0495; in assay [6], -0.0591. In addition, the Bliss excess was found to be 0.0113 in assay [7] and 0.0623 in assay [8].

Turning to `Cc1nc(-c2cn3c(n2)-c2ccc(-c4cnn(C(C)(C)C(N)=O)c4)cc2OCC3)n(C(C)C)n1` [Taselisib] + O=C(Nc1ccc2[nH]nc(-c3ccncc3)c2c1)[C@@H]1CCN(CC(=O)N2CCN(c3ccc(-c4ncccn4)cc3)CC2)C1 [SCH772984] (first compound max 10 µM, 7x7, partner max 5 µM), the Bliss excess was 0.0721 in assay [1]; -0.0287 in assay [2]; 0.008 in assay [3]; 0.0679 in assay [4]; -0.0174 in assay [5]; -0.0046 in assay [6]. In addition, the Bliss excess in assay [7] is -0.0305; in assay [8], 0.0562.

`CC1(C)CCC(CN2CCN(c3ccc(C(=O)NS(=O)(=O)c4ccc(NCC5CCOCC5)c([N+](=O)[O-])c4)c(Oc4cnc5[nH]ccc5c4)c3)CC2)=C(c2ccc(Cl)cc2)C1` [Venetoclax] + CS(=O)(=O)CCNCc1ccc(-c2ccc3ncnc(Nc4ccc(OCc5cccc(F)c5)c(Cl)c4)c3c2)o1 [Lapatinib] (first compound max 1 µM, 7x7, partner max 10 µM): the Bliss excess was -0.0415 in assay [1]; -0.0529 in assay [2]; 0.0377 in assay [3]; -0.0207 in assay [4]; -0.0267 in assay [5]; -0.0404 in assay [6]. Further, the Bliss excess in assay [7] is -0.0597; in assay [8], -0.0212.
